According to ChEMBL document CHEMBL3885861, “Open TG-GATES”:

Organism: Rattus norvegicus
Test: Open TG-GATES - Regimen: Daily Repeat
Format: toxicity, organism-based, Sprague-Dawley
Design: regimen Daily Repeat, gender Male, age 6 weeks
Conditions: in vivo, po, route gavage; for APTT / Bas / Eos / Fbg / Ht / Lym / MCH / MCHC / MCV / Mono / Neu / PT / Plat / RBC / Ret / WBC / Hb: tissue Blood; for KIDNEY_L / KIDNEY_R / KIDNEY_TOTAL: tissue Kidney; for LIVER: tissue Liver; for ALP / AST / BUN / CRE / Ca / Cl / DBIL / GLC / IP / LDH / Na / PL / RALB / TBIL / TC / TG / TP / gamma-GTP: tissue Plasma
[1] = 0 mg/kg, 72 h, dose level Control, time 3 day
[2] = 0 mg/kg, […], dose level Control, time 7 day
[3] = 0 mg/kg, […], dose level Control, time 14 day
[4] = 0 mg/kg, […], dose level Control, time 28 day
[5] = 10 mg/kg, 72 h, dose level Low, time 3 day
[6] = 10 mg/kg, […], dose level Low, time 7 day
[7] = 10 mg/kg, […], dose level Low, time 14 day
[8] = 10 mg/kg, […], dose level Low, time 28 day
[9] = 30 mg/kg, 72 h, dose level Middle, time 3 day

CC(=O)N1CCN(c2ccc(OCC3COC(Cn4ccnc4)(c4ccc(Cl)cc4Cl)O3)cc2)CC1 (configuration not stated) [KETOCONAZOLE]
TERMINAL_BW [1]: 231 g
APTT [1]: 20.9 s
Bas [1]: 0%
Eos [1]: 0.8%
Fbg [1]: 294.6 mg/dL
Ht [1]: 38.3%
Lym [1]: 82%
MCH [1]: 21.7 pg
MCHC [1]: 34.3%
MCV [1]: 63.3 fL
Mono [1]: 2.2%
Neu [1]: 14.2%
PT [1]: 16.5 s
Plat [1]: 118.7 x10_4/uL
RBC [1]: 604.8 x10_4/ul
Ret [1]: 6.5%
WBC [1]: 106.4 x10_2/uL
KIDNEY_L [1]: 1.1 g
KIDNEY_R [1]: 1.1 g
KIDNEY_TOTAL [1]: 2.1 g
LIVER [1]: 10.8 g
ALP [1]: 1650.6 IU/L
AST [1]: 68 IU/L
BUN [1]: 18.6 mg/dL
CRE [1]: 0.2 mg/dL
Ca [1]: 10.8 mg/dL
Cl [1]: 106.2 meq/L
DBIL [1]: 0 mg/dL
GLC [1]: 184.2 mg/dL
IP [1]: 5.9 mg/dL
LDH [1]: 222.4 IU/L
Na [1]: 140.2 meq/L
PL [1]: 142.6 mg/dL
RALB [1]: 3 g/dL
TBIL [1]: 0.012 mg/dL
TC [1]: 71 mg/dL
TG [1]: 85.2 mg/dL
TP [1]: 5.6 g/dL
gamma-GTP [1]: 1.4 IU/L
TERMINAL_BW [2]: 269.3 g
TERMINAL_BW [3]: 301.1 g
TERMINAL_BW [4]: 376.7 g
APTT [2]: 22.6 s
Bas [2]: 0%
Eos [2]: 1%
Fbg [2]: 301.6 mg/dL
Hb [2]: 13.6 g/dL
Ht [2]: 40.1%
Lym [2]: 78.4%
MCH [2]: 21.1 pg
MCHC [2]: 34%
Mono [2]: 2%
Neu [2]: 17.8%
PT [2]: 16.1 s
Plat [2]: 91.9 x10_4/uL
RBC [2]: 645.4 x10_4/ul
Ret [2]: 5.5%
WBC [2]: 94.3 x10_2/uL
APTT [3]: 22.2 s
Bas [3]: 0%
Eos [3]: 0.8%
Fbg [3]: 298 mg/dL
Hb [3]: 14 g/dL
Ht [3]: 40.9%
Lym [3]: 81.4%
MCH [3]: 20.5 pg
MCHC [3]: 34.3%
MCV [3]: 59.8 fL
Mono [3]: 1.6%
Neu [3]: 15.4%
PT [3]: 16.1 s
Plat [3]: 113.5 x10_4/uL
RBC [3]: 685 x10_4/ul
Ret [3]: 4.1%
WBC [3]: 110.9 x10_2/uL
Bas [4]: 0%
Eos [4]: 1%
Fbg [4]: 291.4 mg/dL
Hb [4]: 14.9 g/dL
Ht [4]: 43.4%
Lym [4]: 83.8%
MCH [4]: 19.1 pg
MCHC [4]: 34.3%
MCV [4]: 55.8 fL
Mono [4]: 1.6%
Neu [4]: 11.8%
PT [4]: 17 s
Plat [4]: 107.7 x10_4/uL
RBC [4]: 779.8 x10_4/ul
Ret [4]: 2.5%
WBC [4]: 126.2 x10_2/uL
KIDNEY_L [2]: 1.2 g
KIDNEY_R [2]: 1.2 g
KIDNEY_TOTAL [2]: 2.4 g
KIDNEY_L [3]: 1.1 g
KIDNEY_R [3]: 1.2 g
KIDNEY_TOTAL [3]: 2.3 g
KIDNEY_L [4]: 1.3 g
KIDNEY_R [4]: 1.4 g
KIDNEY_TOTAL [4]: 2.7 g
LIVER [2]: 12.2 g
LIVER [4]: 15.3 g
ALP [2]: 1766.8 IU/L
AST [2]: 69.2 IU/L
BUN [2]: 19 mg/dL
CRE [2]: 0.2 mg/dL
Ca [2]: 10.8 mg/dL
Cl [2]: 106.4 meq/L
DBIL [2]: 0 mg/dL
GLC [2]: 182.8 mg/dL
IP [2]: 6.7 mg/dL
LDH [2]: 176.2 IU/L
Na [2]: 141.8 meq/L
PL [2]: 156.8 mg/dL
RALB [2]: 3.2 g/dL
TBIL [2]: 0.002 mg/dL
TC [2]: 80.6 mg/dL
TG [2]: 102.8 mg/dL
TP [2]: 5.8 g/dL
gamma-GTP [2]: 1.2 IU/L
ALP [3]: 1657 IU/L
AST [3]: 71.2 IU/L
BUN [3]: 19 mg/dL
CRE [3]: 0.2 mg/dL
Ca [3]: 10.3 mg/dL
Cl [3]: 107.2 meq/L
DBIL [3]: 0 mg/dL
GLC [3]: 178.4 mg/dL
IP [3]: 6.4 mg/dL
LDH [3]: 207.6 IU/L
Na [3]: 142.4 meq/L
PL [3]: 167.6 mg/dL
RALB [3]: 3 g/dL
TBIL [3]: 0.002 mg/dL
TG [3]: 140.8 mg/dL
TP [3]: 5.8 g/dL
gamma-GTP [3]: 1 IU/L
ALP [4]: 1167.6 IU/L
AST [4]: 73.6 IU/L
BUN [4]: 19.6 mg/dL
CRE [4]: 0.2 mg/dL
Ca [4]: 10.3 mg/dL
Cl [4]: 106.8 meq/L
DBIL [4]: 0 mg/dL
GLC [4]: 190.2 mg/dL
IP [4]: 5.5 mg/dL
LDH [4]: 168.4 IU/L
Na [4]: 141.8 meq/L
PL [4]: 144.4 mg/dL
RALB [4]: 3.1 g/dL
TBIL [4]: 0.016 mg/dL
TC [4]: 66 mg/dL
TG [4]: 153.2 mg/dL
TP [4]: 6 g/dL
gamma-GTP [4]: 1.2 IU/L
TERMINAL_BW [5]: 236.3 g
APTT [5]: 19.5 s
Bas [5]: 0%
Eos [5]: 0.8%
Fbg [5]: 308.2 mg/dL
Hb [5]: 12.9 g/dL
Ht [5]: 37.7%
Lym [5]: 82.6%
MCH [5]: 21.8 pg
MCV [5]: 64 fL
Mono [5]: 2%
Neu [5]: 13.6%
PT [5]: 16.3 s
Plat [5]: 122.8 x10_4/uL
RBC [5]: 589.4 x10_4/ul
Ret [5]: 6.6%
WBC [5]: 82 x10_2/uL
KIDNEY_L [5]: 1 g
KIDNEY_R [5]: 1 g
KIDNEY_TOTAL [5]: 2.1 g
LIVER [5]: 11.3 g
ALP [5]: 1629.2 IU/L
AST [5]: 75 IU/L
BUN [5]: 18.2 mg/dL
CRE [5]: 0.2 mg/dL
Ca [5]: 11 mg/dL
Cl [5]: 106.6 meq/L
DBIL [5]: 0 mg/dL
GLC [5]: 184.8 mg/dL
IP [5]: 6.6 mg/dL
LDH [5]: 226 IU/L
Na [5]: 140.8 meq/L
PL [5]: 152.6 mg/dL
RALB [5]: 3 g/dL
TBIL [5]: 0.006 mg/dL
TC [5]: 78 mg/dL
TG [5]: 100.6 mg/dL
TP [5]: 5.7 g/dL
gamma-GTP [5]: 1 IU/L
TERMINAL_BW [6]: 260.1 g
TERMINAL_BW [7]: 306.4 g
TERMINAL_BW [8]: 374.4 g
APTT [6]: 21.2 s
Bas [6]: 0%
Eos [6]: 1.2%
Fbg [6]: 311 mg/dL
Hb [6]: 13.6 g/dL
Ht [6]: 40.3%
Lym [6]: 80%
MCH [6]: 21 pg
MCV [6]: 62.2 fL
Mono [6]: 2.4%
Neu [6]: 15.6%
PT [6]: 16.2 s
Plat [6]: 111.8 x10_4/uL
RBC [6]: 648.6 x10_4/ul
Ret [6]: 5.4%
WBC [6]: 117 x10_2/uL
APTT [7]: 21.3 s
Bas [7]: 0%
Eos [7]: 0.8%
Fbg [7]: 308.2 mg/dL
Hb [7]: 13.6 g/dL
Ht [7]: 40.2%
Lym [7]: 81.6%
MCH [7]: 20.3 pg
MCHC [7]: 33.8%
MCV [7]: 60.1 fL
Mono [7]: 1.2%
Neu [7]: 14.6%
PT [7]: 15.9 s
Plat [7]: 118 x10_4/uL
RBC [7]: 669.2 x10_4/ul
Ret [7]: 4.4%
WBC [7]: 116.4 x10_2/uL
APTT [8]: 23.8 s
Bas [8]: 0%
Eos [8]: 1%
Fbg [8]: 308.8 mg/dL
Hb [8]: 14.8 g/dL
Ht [8]: 43.5%
Lym [8]: 80.8%
MCV [8]: 56.9 fL
Mono [8]: 1.8%
Neu [8]: 15.2%
PT [8]: 16.8 s
Plat [8]: 108.8 x10_4/uL
RBC [8]: 764.6 x10_4/ul
Ret [8]: 2.6%
WBC [8]: 109.3 x10_2/uL
KIDNEY_L [6]: 1.1 g
KIDNEY_R [6]: 1.1 g
KIDNEY_TOTAL [6]: 2.1 g
KIDNEY_L [7]: 1.3 g
KIDNEY_R [7]: 1.3 g
KIDNEY_TOTAL [7]: 2.5 g
KIDNEY_L [8]: 1.4 g
KIDNEY_R [8]: 1.4 g
KIDNEY_TOTAL [8]: 2.8 g
LIVER [6]: 12.1 g
LIVER [7]: 13.7 g
LIVER [8]: 15.6 g
ALP [6]: 1544.4 IU/L
AST [6]: 68.4 IU/L
BUN [6]: 19 mg/dL
CRE [6]: 0.2 mg/dL
Ca [6]: 10.6 mg/dL
Cl [6]: 107 meq/L
DBIL [6]: 0 mg/dL
GLC [6]: 193 mg/dL
IP [6]: 6.9 mg/dL
LDH [6]: 228.6 IU/L
Na [6]: 142 meq/L
PL [6]: 144 mg/dL
RALB [6]: 3 g/dL
TBIL [6]: 0.004 mg/dL
TC [6]: 71.6 mg/dL
TG [6]: 120.2 mg/dL
TP [6]: 5.7 g/dL
gamma-GTP [6]: 1.2 IU/L
ALP [7]: 1416.2 IU/L
AST [7]: 67.6 IU/L
BUN [7]: 17.6 mg/dL
CRE [7]: 0.2 mg/dL
Ca [7]: 10.6 mg/dL
Cl [7]: 107 meq/L
DBIL [7]: 0 mg/dL
GLC [7]: 182.2 mg/dL
IP [7]: 6.4 mg/dL
LDH [7]: 187.6 IU/L
Na [7]: 143 meq/L
PL [7]: 155.2 mg/dL
RALB [7]: 3.1 g/dL
TBIL [7]: 0.004 mg/dL
TC [7]: 77.8 mg/dL
TP [7]: 5.8 g/dL
gamma-GTP [7]: 1 IU/L
ALP [8]: 1283.8 IU/L
AST [8]: 59.2 IU/L
BUN [8]: 17.8 mg/dL
CRE [8]: 0.2 mg/dL
Ca [8]: 10.4 mg/dL
Cl [8]: 107.6 meq/L
DBIL [8]: 0 mg/dL
GLC [8]: 182.4 mg/dL
IP [8]: 5.4 mg/dL
LDH [8]: 138.4 IU/L
Na [8]: 143 meq/L
PL [8]: 140.6 mg/dL
RALB [8]: 3.2 g/dL
TBIL [8]: 0.004 mg/dL
TC [8]: 69.8 mg/dL
TG [8]: 121.2 mg/dL
TP [8]: 6.1 g/dL
gamma-GTP [8]: 1.2 IU/L
TERMINAL_BW [9]: 228.5 g
APTT [9]: 20.7 s
